Test results published in doi:10.1101/2025.03.14.643404, “A Bivalent Molecular Glue Linking Lysine Acetyltransferases to Oncogene-induced Cell Death” (bioRxiv, 2025).

How the values were obtained:
SUDHL5 cells = experiment: Cell cycle analysis (EdU / 7-AAD) of SUDHL5; format: cell-based, human; settings: SUDHL5, 10 nM, 24 hours
Experimental: 2 million SUDHL5 cells were plated in 4 mL of media in 6-well plates and treated with 10 nM of drug. After 22 hours, cells were dosed with 10 μM 5-ethynyl-2’-deoxyuridine (EdU) and allowed to incubate for an additional 2 hours, at which point cells were harvested and collected by centrifuging at 300g for 4 minutes at 4°C. Cells were washed once with 1% BSA in PBS. 1.1 million cells in 1% BSA/PBS were then transferred to flow cytometry polypropylene tubes and centrifuged at 300g for 4 minutes at 4°C. Supernatant was removed, and cells were fixed for 15 minutes in the dark at room temperature with 100 μL of 4% PFA in PBS, in which gentle flicking was used to resuspend cells. Cells were then washed with 1 mL of 1% BSA/PBS and permeabilized with 100 μL of 0.1% Triton-X for 30 minutes at room temperature in the dark. Cells were washed with 3 mL 1% BSA/PBS, then incubated in the dark for 30 minutes with a cocktail of AlexaFluor-488-Azide (438 μL PBS, 10 μL 100 mM CuSO4, 2 μL 488-azide, and 50 μL of 1x EdU Reaction Buffer dissolved in water) (Invitrogen C10337). Cells were washed with 1 mL 1% BSA in PBS, then incubated with a reaction cocktail of 7-AAD/RNAseA for 30 minutes in the dark (500 μL 1% BSA/PBS, 2 μL 7-AAD (BD 559925), 5 μL RNAseA (Invitrogen 12091021)). […] Cells were gently agitated by shaking, then analyzed through flow cytometry on a BD Accuri. […]

BCL6 = target: T1, BCL6 (Homo sapiens, UniProt P41182+Q09472+Q92793); experiment: Acetyl-lysine IP and western blot for BCL6 in SUDHL5; format: cell-based; settings: SUDHL5, 1 hour
T1 construct: endogenous in cells; host or cells: SUDHL5
T1 sequence (Q09472 2-2414 limits assumed, other chains not shown): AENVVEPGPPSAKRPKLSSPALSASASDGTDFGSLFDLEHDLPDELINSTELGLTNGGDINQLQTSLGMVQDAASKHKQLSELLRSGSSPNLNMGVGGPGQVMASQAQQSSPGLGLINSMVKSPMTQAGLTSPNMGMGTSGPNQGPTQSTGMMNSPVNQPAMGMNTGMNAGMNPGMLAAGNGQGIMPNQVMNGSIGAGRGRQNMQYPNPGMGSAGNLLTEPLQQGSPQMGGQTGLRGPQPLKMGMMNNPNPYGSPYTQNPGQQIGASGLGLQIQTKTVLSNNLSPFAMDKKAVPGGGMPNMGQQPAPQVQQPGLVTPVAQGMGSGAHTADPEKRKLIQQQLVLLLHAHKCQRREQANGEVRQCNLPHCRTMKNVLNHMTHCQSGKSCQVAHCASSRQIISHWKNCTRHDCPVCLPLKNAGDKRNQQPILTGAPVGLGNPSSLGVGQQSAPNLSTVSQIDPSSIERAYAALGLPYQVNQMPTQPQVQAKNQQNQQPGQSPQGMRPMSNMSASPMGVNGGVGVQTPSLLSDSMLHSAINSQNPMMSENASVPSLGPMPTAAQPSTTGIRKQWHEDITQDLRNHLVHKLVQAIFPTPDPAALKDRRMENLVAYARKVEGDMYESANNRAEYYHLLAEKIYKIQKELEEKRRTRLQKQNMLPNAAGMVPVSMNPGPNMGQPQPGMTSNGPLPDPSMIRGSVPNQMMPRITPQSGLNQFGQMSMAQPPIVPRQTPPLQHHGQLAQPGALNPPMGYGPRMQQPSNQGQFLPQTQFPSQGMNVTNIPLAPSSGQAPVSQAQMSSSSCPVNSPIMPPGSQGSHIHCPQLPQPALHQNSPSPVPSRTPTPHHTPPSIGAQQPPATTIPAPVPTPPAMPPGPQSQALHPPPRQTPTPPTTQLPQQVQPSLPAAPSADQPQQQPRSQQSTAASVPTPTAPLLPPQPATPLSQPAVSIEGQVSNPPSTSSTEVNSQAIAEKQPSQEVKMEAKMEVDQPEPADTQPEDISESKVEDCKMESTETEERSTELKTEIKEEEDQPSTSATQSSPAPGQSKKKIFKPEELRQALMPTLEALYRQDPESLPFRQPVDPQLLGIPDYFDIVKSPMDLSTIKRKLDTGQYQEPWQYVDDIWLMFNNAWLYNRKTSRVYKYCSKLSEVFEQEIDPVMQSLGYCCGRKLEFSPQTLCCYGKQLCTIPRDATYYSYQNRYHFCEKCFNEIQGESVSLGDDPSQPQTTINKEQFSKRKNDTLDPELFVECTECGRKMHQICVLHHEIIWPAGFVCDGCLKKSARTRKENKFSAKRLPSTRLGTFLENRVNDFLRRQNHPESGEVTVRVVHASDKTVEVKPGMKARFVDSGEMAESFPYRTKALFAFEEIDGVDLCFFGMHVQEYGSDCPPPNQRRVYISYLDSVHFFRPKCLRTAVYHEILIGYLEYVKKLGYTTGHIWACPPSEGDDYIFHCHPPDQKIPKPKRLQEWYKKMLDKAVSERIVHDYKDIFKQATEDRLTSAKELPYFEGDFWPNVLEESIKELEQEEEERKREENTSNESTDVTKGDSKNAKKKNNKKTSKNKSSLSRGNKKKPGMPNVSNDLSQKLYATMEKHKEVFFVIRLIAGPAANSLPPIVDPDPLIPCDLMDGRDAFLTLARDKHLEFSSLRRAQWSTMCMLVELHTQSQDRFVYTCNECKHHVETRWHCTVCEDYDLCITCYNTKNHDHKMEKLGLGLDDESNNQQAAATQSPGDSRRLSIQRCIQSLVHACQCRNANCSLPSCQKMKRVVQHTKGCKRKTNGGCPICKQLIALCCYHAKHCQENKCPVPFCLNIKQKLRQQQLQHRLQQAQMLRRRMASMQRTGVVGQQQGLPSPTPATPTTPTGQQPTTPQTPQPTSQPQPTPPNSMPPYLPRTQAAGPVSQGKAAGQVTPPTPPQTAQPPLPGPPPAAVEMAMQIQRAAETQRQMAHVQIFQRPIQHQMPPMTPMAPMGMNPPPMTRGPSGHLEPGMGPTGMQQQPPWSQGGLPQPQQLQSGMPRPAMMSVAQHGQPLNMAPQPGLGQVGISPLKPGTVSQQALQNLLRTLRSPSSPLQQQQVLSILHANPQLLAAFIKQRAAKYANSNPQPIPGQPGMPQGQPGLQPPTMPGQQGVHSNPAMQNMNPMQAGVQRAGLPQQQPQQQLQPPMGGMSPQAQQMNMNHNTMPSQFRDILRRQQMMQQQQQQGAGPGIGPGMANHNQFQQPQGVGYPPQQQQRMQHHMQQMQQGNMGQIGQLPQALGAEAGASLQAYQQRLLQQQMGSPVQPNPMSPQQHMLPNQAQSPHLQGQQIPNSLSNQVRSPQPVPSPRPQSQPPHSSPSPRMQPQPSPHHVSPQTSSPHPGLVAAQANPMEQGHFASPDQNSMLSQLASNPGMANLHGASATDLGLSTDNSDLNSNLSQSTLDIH
T1 sequence (Q92793 2-2442 limits assumed, other chains not shown): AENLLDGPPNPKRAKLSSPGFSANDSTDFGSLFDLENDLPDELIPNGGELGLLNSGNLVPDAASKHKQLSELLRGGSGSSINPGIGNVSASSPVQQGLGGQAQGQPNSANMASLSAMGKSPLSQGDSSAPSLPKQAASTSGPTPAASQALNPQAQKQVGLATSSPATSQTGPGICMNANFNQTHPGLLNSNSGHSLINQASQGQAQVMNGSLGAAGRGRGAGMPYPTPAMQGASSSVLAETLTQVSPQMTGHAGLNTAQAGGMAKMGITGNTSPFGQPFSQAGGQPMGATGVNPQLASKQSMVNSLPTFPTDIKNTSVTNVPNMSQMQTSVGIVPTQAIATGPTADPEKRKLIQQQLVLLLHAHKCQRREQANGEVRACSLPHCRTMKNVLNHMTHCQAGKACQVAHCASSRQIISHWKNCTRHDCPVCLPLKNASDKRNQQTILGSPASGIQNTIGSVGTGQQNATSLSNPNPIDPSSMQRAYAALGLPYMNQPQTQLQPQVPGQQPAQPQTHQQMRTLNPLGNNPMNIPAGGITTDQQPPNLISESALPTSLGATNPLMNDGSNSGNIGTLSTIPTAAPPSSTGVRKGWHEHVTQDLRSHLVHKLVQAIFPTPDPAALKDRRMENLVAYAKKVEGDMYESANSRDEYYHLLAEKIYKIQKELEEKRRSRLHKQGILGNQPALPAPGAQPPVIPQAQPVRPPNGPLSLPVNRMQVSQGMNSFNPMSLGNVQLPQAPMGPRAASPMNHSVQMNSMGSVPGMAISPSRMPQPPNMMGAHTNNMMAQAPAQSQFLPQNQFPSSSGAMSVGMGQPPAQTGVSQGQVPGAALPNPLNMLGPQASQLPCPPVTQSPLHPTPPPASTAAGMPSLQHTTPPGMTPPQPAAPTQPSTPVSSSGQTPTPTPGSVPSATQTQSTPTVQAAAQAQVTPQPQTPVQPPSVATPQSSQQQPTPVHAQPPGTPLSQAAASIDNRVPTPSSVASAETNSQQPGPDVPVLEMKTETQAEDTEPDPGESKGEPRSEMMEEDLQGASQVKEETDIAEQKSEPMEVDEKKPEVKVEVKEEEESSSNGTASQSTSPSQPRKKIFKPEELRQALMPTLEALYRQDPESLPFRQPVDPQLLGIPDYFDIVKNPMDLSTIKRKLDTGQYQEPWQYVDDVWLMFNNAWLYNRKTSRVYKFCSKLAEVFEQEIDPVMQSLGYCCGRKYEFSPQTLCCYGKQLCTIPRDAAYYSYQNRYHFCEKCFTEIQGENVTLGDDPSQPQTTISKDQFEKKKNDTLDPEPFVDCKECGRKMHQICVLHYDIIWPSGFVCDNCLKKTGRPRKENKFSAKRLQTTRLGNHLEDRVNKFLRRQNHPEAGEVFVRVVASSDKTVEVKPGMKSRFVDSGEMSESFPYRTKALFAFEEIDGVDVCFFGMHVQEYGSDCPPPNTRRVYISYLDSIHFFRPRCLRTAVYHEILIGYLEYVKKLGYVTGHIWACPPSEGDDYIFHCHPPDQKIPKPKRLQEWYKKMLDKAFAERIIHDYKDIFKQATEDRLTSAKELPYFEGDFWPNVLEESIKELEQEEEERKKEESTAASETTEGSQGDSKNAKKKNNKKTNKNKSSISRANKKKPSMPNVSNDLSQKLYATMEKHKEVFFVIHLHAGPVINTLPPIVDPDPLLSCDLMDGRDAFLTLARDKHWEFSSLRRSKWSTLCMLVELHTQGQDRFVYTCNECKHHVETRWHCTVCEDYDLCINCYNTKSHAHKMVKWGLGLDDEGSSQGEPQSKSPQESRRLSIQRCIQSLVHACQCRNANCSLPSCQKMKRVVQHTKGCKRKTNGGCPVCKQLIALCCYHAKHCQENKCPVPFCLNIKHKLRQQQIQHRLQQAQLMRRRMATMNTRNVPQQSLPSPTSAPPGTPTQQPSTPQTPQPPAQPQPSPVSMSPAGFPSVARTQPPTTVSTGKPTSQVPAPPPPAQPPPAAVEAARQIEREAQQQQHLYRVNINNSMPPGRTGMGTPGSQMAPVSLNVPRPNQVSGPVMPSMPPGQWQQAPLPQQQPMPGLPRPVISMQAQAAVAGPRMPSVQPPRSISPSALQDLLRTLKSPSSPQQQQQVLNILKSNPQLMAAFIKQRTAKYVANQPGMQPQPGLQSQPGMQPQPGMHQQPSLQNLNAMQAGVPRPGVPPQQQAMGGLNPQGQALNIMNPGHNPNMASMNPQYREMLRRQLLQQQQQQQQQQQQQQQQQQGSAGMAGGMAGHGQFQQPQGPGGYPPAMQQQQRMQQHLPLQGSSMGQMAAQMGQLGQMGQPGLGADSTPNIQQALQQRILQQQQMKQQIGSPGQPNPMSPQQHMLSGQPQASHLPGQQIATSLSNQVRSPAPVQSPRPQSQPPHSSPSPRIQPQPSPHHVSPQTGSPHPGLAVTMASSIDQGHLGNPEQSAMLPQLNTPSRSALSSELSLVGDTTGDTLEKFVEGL
Experimental: Cells were plated at 1M/mL and treated with compound or DMSO at indicated timepoints and doses. Cells were harvested on ice, counted, normalized by count, and washed 1X in PBS containing compound or DMSO. For only BCL6 immunoprecipitation, compound or DMSO was maintained in nuclear preparation buffers at identical concentration to cell treatment throughout. Nuclei were prepared by incubation in Buffer A (25 mM HEPES pH 7.5, 25 mM KCl, 0.05 mM EDTA, 1mM MgCl2, 10% glycerol, 0.1% NP-40) supplemented with protease inhibitors (1 mM PMSF, ~[…] pepstatin, aprotinin, and leupeptin) at 4 °C for 7 mins. Nuclear preparation was confirmed by Trypan blue staining and nuclei were pelleted by centrifugation for 5 min at 500g at 4 °C. Pelleted nuclei were resuspended in IP Buffer (25 mM HEPES pH 7.5, 150mM KCl, 0.05 mM EDTA, 1 mM MgCl2, 10% glycerol, 0.1% NP-40) supplemented with protease inhibitors and 1 μL/250 units benzonase (Sigma E1014). Chromatin was removed by incubation with rotation for 30 min and nuclei sheared using a 27-gauge needle exactly five times. […]
Cells were plated at 1M/mL and treated with drug at indicated timepoints and doses. […] After 10 min centrifugation at 14,000g and 4 °C, the supernatant was collected and protein concentration was measured by Bradford. […] ImageStudio (Licor) was used for blot imaging and quantification.

## CNC(=O)COc1cc2cc(Nc3nc(N4CCC(C(=O)N5CCN(CCC(=O)N6CCC(n7nc(N8CCCc9cc(-c%10cnn(C)c%10)c(C(F)F)cc98)c8c7CCN(C(=O)NC)C8)CC6)CC5)CC4)ncc3Cl)cc(OC)c2n(C)c1=O [TCIP3]
SUDHL5 cells
  cell cycle effect: enrichment in cells arrested in G0/G1
BCL6
  concentration at which increase of acetylated BCL6 begins: 1 nM
